Assays:
[1] = Deposited lung dose with absorbing filters and prediction of human dose (PAH minipig model); type: in vivo
Protocol: The anesthetized thromboxane A2 challenged PAH-minipig model (see experimental part E-1) is considered to be the most relevant and sensitive model for the prediction of the human minimal effective and effective doses (MED, ED). To determine effective LDs, experiments were repeated with the difference that absorbing filters were attached at the end of the tubes to determine the deposited lung dose. […] Assuming a minimal effective ND of 3 μg/kg (5% reduction in PAP) the minimal effective deposited LD is considered as 0.15 μg/kg (see FIG. 1).
The nominal doses of 3, 10, 30 and 100 μg/kg of the minipig model were multiplied by the filter deposition factor of 5% resulting in 0.15, 0.5, 1.5 and 5 μg/kg lung deposited doses in the minipig. These values were multiplied by 60 kg to achieve the lung dose in humans. Thus, the FPD reflecting the PAP reduction for a 60 kg human are calculated to be 9, 30, 90 and 300 μg.
Thus, via a direct up-scaling from minipig, the predictive MED (5% PAP reduction) for a human based on a 60 kg body weight is calculated to be 9 μg LDD, not considering protein binding within the respiratory tract. As a surrogate for unbound concentrations, which are the likely active concentrations in the lung, we considered respective differences in fractions unbound in plasma of minipig and human. This consideration results in a minimum effective lung dose (LD) for a 60 kg participant of 41 μg LDD for the assumed 5% reduction on PAP. Consequently, the predictive minimal human effective dose is in the range from 9 μg LDD to 41 μg LDD based on a 60 kg body weight (see FIG. 2).
In order to generate a human dose estimate, experiments in the PAH minipig model for comparative example 11 were repeated with the difference that absorbing filters were attached at the end of the tubes to […] determine the deposited lung dose. […] The arithmetic mean of the aerosol fraction deposited on the filters is 5% based on all results of the filter experiments, resulting in relative lung deposited doses of about 0.15 μg/kg (3 μg/kg nominal dose), 0.5 μg/kg (10 μg/kg nominal dose), 1.5 μg/kg (30 μg/kg nominal dose) and 5 μg/kg (100 μg/kg nominal dose). Assuming a minimal effective nominal dose of 3 μg/kg for a 5% reduction in PAP and a mean nebulization efficiency of 5%, the minimal effective deposited lung dose is considered as 0.15 μg/kg based on the PAH minipig model. Therefore, for a human patient of 60 kg body weight a minimal effective lung deposited dose of 9-41 μg, depending on whether or not an effect of different protein binding (see table 37) is postulated. Considering 100 μg/kg as effective dose in the minipig model, 300-1370 μg lung deposited dose is postulated as effective dose, again depending on the consideration of different interspecies protein binding.

[2] = tested on: conscious hypoxia challenged dog; assay: Conscious hypoxia challenged dog model, duration of action (PAP reduction); type: in vivo
[3] = tested on: plasma proteins; assay: Protein binding via Transil assay, human plasma; type: in vitro ADME; details: human plasma
Source text: (§1) The distribution of a test substance between Transil® (phosphatidylcholine lipid bilayers immobilized on silica beads) and plasma is a characteristic feature of any pharmaceutical compound and is dependent on its extent of binding to plasma proteins. By comparing the distribution between Transil® and buffer with the distribution between Transil® and plasma of any species of interest, the unbound fraction in the plasma of the respective animal species can be calculated in vitro. The respective plasma and buffer concentrations were determined via a radioactivity analysis. A detailed description of the method and its validation was published by Schuhmacher et al. (2).

[4] = tested on: plasma proteins; assay: Protein binding via Transil assay, dog plasma; type: in vitro ADME
Source text: as §1

[5] = tested on: unilateral ventilated minipig; assay: Unilateral ventilated minipig model as a proxy of VQ-mismatch; type: in vivo; details: inhaled application
[6] = tested on: soluble guanylyl cyclase; assay: Efficacy under experimental conditions of oxidative stress (ODQ, L-NAME treatment); type: in vivo
[7] = tested on: acetylcholine [ACh] rat model; assay: Acetylcholine [ACh] rat model, bronchodilation; details: in vivo
[8] = tested on: chronic ovalbumin asthma mice model; assay: Chronic ovalbumin asthma mice model; details: mouse, in vivo
[9] = Phase I, single inhaled, inhaled + charcoal, oral and intravenous doses in healthy male subjects: plasma concentrations, lung deposition; type: in vivo, human
Protocol: Healthy white male subjects, aged 18 to 45 years with a body mass index (BMI) above/equal 18.5 and below/equal 29.9 kg/m^2 were treated in a clinical phase I study with a single inhaled dose of 1000 μg (nominal dose), a single inhaled dose of 1000 μg (nominal dose)+charcoal block, a single oral dose of 1000 μg and a single infusion over 2 h of 100 μg of example 4. As the bioavailability of an intravenous application is generally 100% per definition and therefore higher than in case of an oral or […], the intravenous dose was carefully selected to be lower than the oral and inhaled dose to avoid higher plasma concentration resulting from a high IV dose and potential side effect, e.g. reduction in blood pressure or syncope. Therefore, 100 μg was selected for the IV dose in this investigation. Seven days washout period between treatments was applied. The subjects swallowed a solution for oral administration (20 ml comprising 1000 μg see under C-2, table 49a). The subjects received a solution as a single infusion over 2 hours (2 ml comprising 100 μg see under C-2 table 49a). The subjects inhaled the drug powder from capsules (see under C-1, tables 17 and 20) inserted into a handheld inhalation device by one deep inhalative breath. After inhalation of the dry powder formulation of this drug, some parts of the nominal dose remain in the capsule and the device, the dose which reaches the body at the mouthpiece is called the emitted dose. The emitted dose can be calculated/determined as followed: nominal dose−(remains in the capsule+remains in the device). After inhalation of the dry powder, one part of the emitted dose enters the gastrointestinal tract (GT and is called the oral part of the emitted dose, the other part of the emitted dose which reaches the lung through the respiratory airways is called the lung dose and represents the lung deposited dose. As the lung is the target organ of the effect, the lung deposited dose must be quantified. Lung deposition can be indirectly estimated, by determining the part of the nominal dose which reaches the GIT and the remains in the capsule and the device. To investigate and determine lung deposition, the following investigations were done (see also FIG. 59): • 1—Inhaled application of a single dose of 1000 μg of the dry powder. • 2—Inhaled application of a single dose of 1000 μg of the dry powder in combination with oral administration of charcoal block. The charcoal block capped the oral absorption of GIT part of the dose, as example 4 completely adsorbed to charcoal block. This implies that the concentrations of example 4 measured reach the systemic circulation via the lung. • 3—Administration of a single oral dose of 1000 μg example 4 to determine the oral absorption. • 4—Administration of a 2 h infusion of example 4 to investigate the elimination.

| Compound | Relative lung deposited dose in minipig ([1]; 3 μg/kg nominal dose) [µg/kg] | Relative lung deposited dose in minipig ([1]; 10 μg/kg nominal dose) [µg/kg] | Relative lung deposited dose in minipig ([1]; 30 μg/kg nominal dose) [µg/kg] | Relative lung deposited dose in minipig ([1]; 100 μg/kg nominal dose) [µg/kg] | duration of effect (PAP reduction) [2] | free fraction, lower than comparative example 1 [3] [times lower] | fraction unbound, lower than comparative example 1 [4] [times lower] | effect on PAP and oxygenation [5] | efficacy under oxidative stress [6] | effect on ventilation [7] | effect on airway hyper-responsiveness and inflammation [8] | absolute bioavailability ([9]; dry powder inhaled with charcoal) [%] | absolute bioavailability ([9]; dry powder inhaled without charcoal) [%] | elimination half-life ([9]; inhaled 1000 μg with charcoal) [h] | elimination half-life ([9]; inhaled 1000 μg without charcoal) [h] | elimination half-life ([9]; intravenous, 100 μg infusion over 2 h) [h] | elimination half-life ([9]; oral, 1000 μg) [h] |
| --- | --- | --- | --- | --- | --- | --- | --- | --- | --- | --- | --- | --- | --- | --- | --- | --- | --- |
| O=C(O)c1ccc(CCN(CCc2ccccc2OCc2ccc(-c3ccc(C(F)(F)F)cc3)cc2Cl)[C@H]2CCCc3nc(C(=O)O)ccc32)cc1 [Comparative example 11, (5S)-5-{[2-(4-carboxyphenyl)ethyl][2-(2-{[3-chloro-4′-(trifluoromethyl)[biphenyl]-4-yl]methoxy}phenyl)ethyl]amino}-5,6,7,8-tetrahydroquinoline-2-carboxylic Acid] | 0.15 | 0.50 | 1.5 | 5.0 | up to 17 hrs | 2 | 10 | lowered PAP without negative effects on oxygenation | enhanced | bronchodilatory effect | inhibitory effect on airway hyper-responsiveness and inflammation |  |  |  |  |  |  |
| O=C(O)c1ccc(CCN(CCc2ccccc2OCc2ccc(-c3ccc(C(F)(F)F)cc3)cc2Cl)[C@H]2CCCc3nc(C(=O)O)ccc32)cc1 [Example 4, (5S)—{[2-(4-Carboxyphenyl)ethyl][2-(2-{[3-chloro-4′-(trifluoromethyl)biphenyl-4-yl]methoxy}phenyl)-ethyl]amino}-5,6,7,8-tetrahydroquinoline-2-carboxylic Acid as Monohydrate I] |  |  |  |  |  |  |  |  |  |  |  | 16.3 | 18.8 | 16.1 | 15.1 | 0.26 | 4.43 |

Source: patent US20250281480A1, “PHARMACEUTICAL DRY POWDER INHALATION FORMULATION” (Bayer Aktiengesellschaft, priority 2021, published 2025)
